The subject of series [1] is cell membrane. Description: Fusion quality of R groups bound to amphipathic molecules B in the fusion mixture.
Experimental: (§1) After homogenization in the organic solvent, the organic solvent should be removed.
(§2) The dried mixture is taken up in an aqueous buffer solution, preferably having a pH value of 7, and is homogenized once more. Advantageously a liposome forms, which comprises the molecule types that were added. Molecules of molecule types E and F can likewise be added.
(§3) According to the actual method, the fusion mixture is diluted with a cell medium, e.g. 1:100 (mixture:cell medium v/v), homogenized once more, and added to the cells.
(§4) To this end it is sufficient for the cells to be brought in contact with the mixture for approximately 1 to 60 minutes, and in the case of tissue samples, for 60 to 120 minutes, for example. A cell washing step should then be incorporated.
The test system of series [2] is cell membrane.
Experimental: as §1, §2, §3, §4
The mark [3] stands for this setting: R group covalently bound to lipid (molecule type B).

Here are results for 8 compounds from patent US20120100077A1, “MIXTURE OF AMPHIPATHIC MOLECULES AND METHOD FOR MODIFYING CELL MEMBRANES BY MEANS OF FUSION” (priority 2009, published 2012).

Where two headings read alike, the source gives them in different places.

As to `CCCCCCCC/C=C\CCCCCCCC(=O)OC[C@H](COP(=O)(O)OCCNC(=O)OCCOCCOCCOCCOCCOCCOCCOCCOCCOCCOCCOCCOCCOCCOCCOCCOCCOCCOCCOCCOCCOCCOCCOCCOCCOCCOCCOCCOCCOCCOCCOCCOCCOCCOCCOCCOCCOCCOCCOCCOCCOCCOCCOCCOCCOC)OC(=O)CCCCCCC/C=C\CCCCCCCC.N` [PEG(2000), 1,2-dioleoyl-sn-glycero-3-phosphoethanolamine-N-[methoxy(polyethylene glycol)-2000](ammonium salt)], in series [1] (setting [3]), the Fusion quality came to 6 and the “toxic” value is on record as “toxic”.
For `CCCCCCCCCCCCCCCCCCN1C(=CC=Cc2oc3ccccc3[n+]2CCCCCCCCCCCCCCCCCC)Oc2ccccc21.[O-][Cl+3]([O-])([O-])[O-]` [DiO per se, DiOC18(3)3,3′-dioctadecyloxacarbocyanine perchlorate], the Fusion quality in series [1] (setting [3]) is given as 1.
With `CCCCC/C=C\C/C=C\C/C=C\C/C=C\CCCC(=O)O[C@H](COC(=O)CCCCCCCCCCCCCCCCC)COP(=O)([O-])O[C@H]1C(O)C(O)C(O)[C@@H](O)C1O.[Na+]` (stereo partly drawn) [inositol, L-α-phosphatidylinositol (sodium salt)], in series [1], the “function as fusion-inducing molecule type B” value is “non-functional”. In series [1] (setting [3]), the Fusion quality is given as 6 and the “toxic” value is listed as “toxic”.
In the case of `CCCCCCCC/C=C\CCCCCCCC(=O)OC[C@H](COP(=O)(O)OCCNC(=O)CCCCCNC(=O)CCCCC1SCC2NC(=O)NC21)OC(=O)CCCCCCC/C=C\CCCCCCCC` (stereo partly drawn) [capBiotin, 1,2-dioleoyl-sn-glycero-3-phosphoethanolamine-N-cap-biotin], in series [1], the Fusion quality is recorded as 6 and the “function as fusion-inducing molecule type B” value is “do not, however, function”.
Take `c1cc2ccc3cccc4ccc(c1)c2c34` [pyrene]: the “toxic” value in series [2] is 5(toxic).
As to `CCCCCCCC/C=C\CCCCCCCC(=O)OC[C@H](COP(=O)(O)OCCNS(=O)(=O)c1ccc(-c2c3ccc(N(CC)CC)cc3[o+]c3cc(N(CC)CC)ccc23)c(S(=O)(=O)[O-])c1)OC(=O)CCCCCCC/C=C\CCCCCCCC.CCN(CC)CC` [LR, Lissamine rhodamine B 1,2-diolenoyl-sn-glycero-3-phosphoethanolamine, (triethylammonium salt)], the Fusion quality in series [1] is given as 1.
For the compound “Texas Red 1,2-dihexadecanoyl-sn-glycero-3-phosphoethanolamine (triethylammonium salt) [Texas-Red]”, the Fusion quality in series [1] (setting [3]) is on record as 1.
`CCCCCCCC/C=C\CCCCCCCC(=O)OC[C@H](COP(=O)(O)OCCNc1ccc([N+](=O)[O-])c2nonc12)OC(=O)CCCCCCC/C=C\CCCCCCCC.CCN(CC)CC` [NBD, N-(7-nitrobenz-2-oxa-1,3-diazol-4-yl)-1,2-diolenoyl-sn-glycero-3-phosphoethanolamine (triethylammonium salt)]: the Fusion quality in series [1] was 2.
